The values below come from patent publication US20240059695A1, “SUBSTITUTED IMIDAZO[1,5-b]PYRIDAZINE COMPOUNDS AS KINASE INHIBITORS AND USE THEREOF” (IMPACT THERAPEUTICS (SHANGHAI), INC, priority 2020, published 2024).

The target of one series is T1, ATR/ATRIP enzyme (Homo sapiens, UniProt Q13535).
T1 construct: purchased Eurofins 14-953
As to the kind of experiment: ATR enzyme activity experiment (HTRF). Type of series: biochemical. As to conditions: p53 substrate, 30 min room temperature, read-out: IC50 (nM), inhibitory effect on ATR kinase activity. As for the experimental part:
The mixture was centrifuged at 1000 rpm for 1 minute, and reacted at room temperature protected from light for 30 minutes. Then 5 μL of EDTA stop solution (250 mM) was added to stop the reaction.
On the technique in general: In TR-FRET formats the signal depends on donor and acceptor labels being close together.

Series [1] deals with human lung cancer NCI-H460 cell. As to the kind of experiment: MTT proliferation assay, NCI-H460. As to conditions: NCI-H460, 96 h, read-out: IC50 (nM), proliferation of NCI-H460 cell. The series is classed as cell-based. Here is the method: The cells were digested by trypsinase and centrifuged at 800 rpm for 5 minutes, the supernatant was discarded, and the residual was resuspended with fresh medium […]) and counted.
(§1) The cells were seeded into 96-well cell culture plate with a density of 2000/4000 cells per well and incubated overnight in a 5% CO2 incubator at 37° C. […] 5 μL diluent of each concentration was added to 120 μL of medium (25 times diluted) and mixed by shaking. The overnight cell plates were taken and the culture medium was removed, 195 μL of fresh medium was added to each well, and 5 μL of diluted medium containing the corresponding concentration of the test compound was added respectively (the final concentration of DMSO is 1%), and the culture plate was then placed in a 5% CO2 incubator at 37° C. for 4 days. After removing the original solution, 100 μL of fresh serum-free DMEM medium containing MTT (0.5 mg/mL) was added to each well, the culture was continued. […] Cell viability (%)=(ODcompound−ODbackground)/(ODDMSO−ODbackground)×100. GraphPad Prism 6.0 was used to analyze the data. The inhibitory activity of compounds on cell proliferation was plotted based on cell viability and the logarithm of compound concentration. The IC50 value was fitted by a sigmoidal dose response curve equation Y−100/(1+10^(LogC−LogIC50)), wherein C was the concentration of compound.
A general note: Tetrazolium assays rely on reduction of a dye to a coloured formazan, in cell work by metabolically active cells.

For series [2], the system named is human colon cancer LoVo cell. As to the kind of experiment: MTT proliferation assay, LoVo. The series is classed as cell-based. The settings on record: Homo sapiens, LoVo, 96 h, read-out: IC50 (nM), proliferation of LoVo cell. Here is the method: as §1, with “[…]” for “100 μL”, “viability (%)=(ODcompound−ODbackground)/ODDMSO−ODbackground)×100.” for “viability (%)=(ODcompound−ODbackground)/(ODDMSO−ODbackground)×100.”, “The IC5.0” for “The IC50”, “equation Y=100/(1+10^(LogC-LogIC50)),” for “equation Y−100/(1+10^(LogC−LogIC50)),”

The nature of series [3]: Pharmacokinetics following single oral administration to mice. The settings on record: mouse, CD-1 (ICR) mice, gavage 10 mg/kg, 0.5% methylcellulose/water suspension, plasma. The series is classed as in vivo. Here is the method:
The compound of the present invention was formulated into a 0.5% methylcellulose/water uniform suspension, and was administered to CD-1 (ICR) mice by gavage at 10 mg/kg. Plasma samples were collected at 8 time points of 0.250, 0.500, 1.00, 2.00, 4.00, 6.00, 8.00 and 24.0 hours post-dose. Concentrations of the compound were determined by LC-MS/MS method.

Each structure is given as a SMILES string. Read-outs that look alike come from different tables or passages of the source.

T1 sequence (Q13535 whole entry): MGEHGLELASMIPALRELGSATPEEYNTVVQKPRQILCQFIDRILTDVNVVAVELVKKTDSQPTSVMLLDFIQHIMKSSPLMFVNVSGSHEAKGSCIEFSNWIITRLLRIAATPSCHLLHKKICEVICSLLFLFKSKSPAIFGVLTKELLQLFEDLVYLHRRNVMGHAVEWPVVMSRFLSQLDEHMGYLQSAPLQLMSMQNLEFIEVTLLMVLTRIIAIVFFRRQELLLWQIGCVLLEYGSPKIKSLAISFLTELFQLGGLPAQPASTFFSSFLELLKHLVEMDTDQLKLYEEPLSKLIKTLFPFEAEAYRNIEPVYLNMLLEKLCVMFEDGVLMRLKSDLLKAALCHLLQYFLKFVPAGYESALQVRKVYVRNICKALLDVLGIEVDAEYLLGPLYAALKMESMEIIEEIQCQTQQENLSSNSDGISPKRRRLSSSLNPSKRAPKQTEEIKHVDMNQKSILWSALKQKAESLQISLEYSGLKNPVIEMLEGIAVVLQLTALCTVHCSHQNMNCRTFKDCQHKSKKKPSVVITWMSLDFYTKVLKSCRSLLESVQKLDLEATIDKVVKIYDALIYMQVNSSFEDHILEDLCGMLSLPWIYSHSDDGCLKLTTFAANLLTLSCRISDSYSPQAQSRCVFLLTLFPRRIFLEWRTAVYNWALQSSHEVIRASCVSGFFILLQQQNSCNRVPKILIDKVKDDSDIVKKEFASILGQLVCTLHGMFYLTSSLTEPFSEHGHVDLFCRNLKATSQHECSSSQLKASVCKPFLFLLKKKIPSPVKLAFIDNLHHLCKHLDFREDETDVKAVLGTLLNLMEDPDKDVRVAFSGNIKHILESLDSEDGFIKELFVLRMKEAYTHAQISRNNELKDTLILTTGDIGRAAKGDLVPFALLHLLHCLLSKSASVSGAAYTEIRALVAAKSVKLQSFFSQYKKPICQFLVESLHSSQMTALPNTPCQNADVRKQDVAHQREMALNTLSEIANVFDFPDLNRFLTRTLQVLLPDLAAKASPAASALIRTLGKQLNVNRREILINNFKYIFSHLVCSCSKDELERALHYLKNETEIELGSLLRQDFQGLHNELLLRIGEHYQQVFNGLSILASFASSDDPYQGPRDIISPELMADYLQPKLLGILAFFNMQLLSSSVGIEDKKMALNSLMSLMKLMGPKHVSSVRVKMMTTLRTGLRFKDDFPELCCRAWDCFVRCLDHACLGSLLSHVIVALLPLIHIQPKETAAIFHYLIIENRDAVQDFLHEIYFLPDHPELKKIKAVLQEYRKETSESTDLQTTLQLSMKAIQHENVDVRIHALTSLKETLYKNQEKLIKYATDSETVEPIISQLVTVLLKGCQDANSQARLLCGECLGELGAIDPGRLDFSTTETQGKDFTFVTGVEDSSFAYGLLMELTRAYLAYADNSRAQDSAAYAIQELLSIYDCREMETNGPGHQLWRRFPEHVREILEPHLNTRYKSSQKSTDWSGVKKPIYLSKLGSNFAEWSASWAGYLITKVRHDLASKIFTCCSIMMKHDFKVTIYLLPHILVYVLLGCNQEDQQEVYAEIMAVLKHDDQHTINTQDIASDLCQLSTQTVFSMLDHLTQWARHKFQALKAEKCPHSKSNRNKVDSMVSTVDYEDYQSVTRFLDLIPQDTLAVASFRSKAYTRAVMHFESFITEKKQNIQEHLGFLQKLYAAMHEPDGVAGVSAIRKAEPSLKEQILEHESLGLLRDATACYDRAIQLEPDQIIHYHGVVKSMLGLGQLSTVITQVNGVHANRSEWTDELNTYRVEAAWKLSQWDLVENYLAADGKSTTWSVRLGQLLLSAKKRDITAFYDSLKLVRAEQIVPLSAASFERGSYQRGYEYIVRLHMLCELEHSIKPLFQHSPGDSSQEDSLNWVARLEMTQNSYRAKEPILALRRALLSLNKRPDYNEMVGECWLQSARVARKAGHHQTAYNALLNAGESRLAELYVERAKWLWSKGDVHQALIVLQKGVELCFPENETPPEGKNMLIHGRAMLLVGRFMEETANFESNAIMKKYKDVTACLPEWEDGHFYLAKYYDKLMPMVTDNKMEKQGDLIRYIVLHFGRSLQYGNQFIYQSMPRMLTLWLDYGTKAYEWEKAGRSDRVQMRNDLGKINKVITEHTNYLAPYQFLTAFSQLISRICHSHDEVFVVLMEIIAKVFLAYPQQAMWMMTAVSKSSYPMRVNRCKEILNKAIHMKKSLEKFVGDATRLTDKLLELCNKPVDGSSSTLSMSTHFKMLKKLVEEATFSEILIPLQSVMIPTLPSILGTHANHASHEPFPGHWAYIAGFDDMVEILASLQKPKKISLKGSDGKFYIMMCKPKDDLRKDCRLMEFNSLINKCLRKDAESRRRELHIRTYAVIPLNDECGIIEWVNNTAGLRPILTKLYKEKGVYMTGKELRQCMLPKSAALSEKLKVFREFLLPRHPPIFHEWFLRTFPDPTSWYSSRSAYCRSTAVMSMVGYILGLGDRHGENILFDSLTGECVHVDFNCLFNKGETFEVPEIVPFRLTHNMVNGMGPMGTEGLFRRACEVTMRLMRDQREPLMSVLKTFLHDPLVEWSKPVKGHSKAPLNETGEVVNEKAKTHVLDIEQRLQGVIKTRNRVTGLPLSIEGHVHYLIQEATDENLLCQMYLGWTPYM
T1 sequence (Q8WXE1 whole entry partner): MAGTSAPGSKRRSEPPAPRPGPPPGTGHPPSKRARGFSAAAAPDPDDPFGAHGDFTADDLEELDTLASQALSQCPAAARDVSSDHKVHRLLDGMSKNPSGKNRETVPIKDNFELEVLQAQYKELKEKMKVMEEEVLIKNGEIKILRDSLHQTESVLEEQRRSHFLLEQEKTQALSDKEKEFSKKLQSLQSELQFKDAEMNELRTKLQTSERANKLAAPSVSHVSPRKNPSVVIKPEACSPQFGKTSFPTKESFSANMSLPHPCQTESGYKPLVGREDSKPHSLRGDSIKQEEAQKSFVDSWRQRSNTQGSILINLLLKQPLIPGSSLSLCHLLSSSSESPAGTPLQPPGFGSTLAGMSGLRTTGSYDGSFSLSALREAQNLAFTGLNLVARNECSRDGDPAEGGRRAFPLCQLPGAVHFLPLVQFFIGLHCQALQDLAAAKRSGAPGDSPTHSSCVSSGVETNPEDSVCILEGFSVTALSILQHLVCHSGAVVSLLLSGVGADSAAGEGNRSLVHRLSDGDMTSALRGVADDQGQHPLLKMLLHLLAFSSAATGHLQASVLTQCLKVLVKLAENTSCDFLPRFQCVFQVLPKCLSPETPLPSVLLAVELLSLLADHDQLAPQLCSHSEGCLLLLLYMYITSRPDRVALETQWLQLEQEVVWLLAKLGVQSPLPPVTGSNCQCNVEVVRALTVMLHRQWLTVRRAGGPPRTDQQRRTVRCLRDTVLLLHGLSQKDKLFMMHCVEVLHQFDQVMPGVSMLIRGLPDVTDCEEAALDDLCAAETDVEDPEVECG

Turning to `Cc1nc(-c2ccn[nH]2)n2nc(N3CCOC[C@H]3C)cc(-c3ccccc3F)c12` [Example 14, (R)-4-(4-(2-fluorophenyl)-5-methyl-7-(1H-pyrazol-5-yl)imidazo[1,5-b]pyridazin-2-yl)-3-methylmorpholine], at ATR/ATRIP enzyme, the IC50 is 10 nM. Besides, the IC50 in series [1] (MTT, 4 days) came out at 32 nM. Also, the IC50 in series [2] (MTT, 4 days) was 26.2 nM. In addition, in series [3], the AUC(0-inf) (commonly the area under the concentration-time curve extrapolated to infinity) amounted to 78700 ng·h/mL; the AUC(0-t) (in general, exposure summed from dosing to a finite time, without extrapolation to infinity) was found to be 77300 ng·h/mL; the highest concentration (Cmax) (commonly the maximum level reached in the sampled fluid or tissue) amounted to 10800 ng/mL; the half-life (in general, how long it takes for the measured level to halve) is 3.75 h.

For `C[C@@H]1COCCN1c1cc(-c2ccnn2C)c2c(Cl)nc(-c3ccn[nH]3)n2n1` [Example 21, (R)-4-(5-chloro-4-(1-methyl-1H-pyrazol-5-yl)-7-(1H-pyrazol-5-yl)imidazo[1,5-b]pyridazin-2-yl)-3-methylmorpholine], the IC50 at ATR/ATRIP enzyme is 6 nM. The IC50 in series [1] (MTT, 4 days) came to 24.1 nM. Moreover, the IC50 in series [2] (MTT, 4 days) was 22.4 nM. For the same compound, in series [3], the total exposure AUC(0-inf) was 42900 ng·h/mL, the AUC(0-t) was found to be 42800 ng·h/mL, the concentration peaked (Cmax) at 7340 ng/mL and the half-life was 2.65 h.

With `C[C@@H]1COCCN1c1cc(-c2ccnn2C)c2c(Br)nc(-c3ccn[nH]3)n2n1` [Example 22, (R)-4-(5-bromo-4-(1-methyl-1H-pyrazol-5-yl)-7-(1H-pyrazol-5-yl)imidazo[1,5-b]pyridazin-2-yl)-3-methylmorpholine], the IC50 at ATR/ATRIP enzyme was determined as 2 nM. The IC50 in series [1] (MTT, 4 days) was 17.1 nM. The IC50 in series [2] (MTT, 4 days) stood at 24.1 nM. For the same compound, in series [3], the AUC(0-inf) was found to be 63000 ng·h/mL, the AUC(0-t) was found to be 59000 ng·h/mL, the Cmax was 7670 ng/mL and the half-life was 5.88 h.

On to `C=Cc1nc(-c2ccn[nH]2)n2nc(N3CCOC[C@H]3C)cc(-c3ccnn3C)c12` [Example 23, (R)-3-methyl-4-(4-(1-methyl-1H-pyrazol-5-yl)-7-(1H-pyrazol-5-yl)-5-vinylimidazo[1,5-b]pyridazin-2-yl)morpholine], for which the IC50 on ATR/ATRIP enzyme came out at 2 nM. In series [1] (MTT, 4 days), the IC50 is 32 nM. Besides, in series [2] (MTT, 4 days), the IC50 was found to be 39.1 nM. Besides, in series [3], the AUC(0-inf) was 24100 ng·h/mL, the AUC(0-t) was 22400 ng·h/mL, the highest level (Cmax) was 6610 ng/mL and the half-life was 1.66 h.

On to `CCc1nc(-c2ccn[nH]2)n2nc(N3CCOC[C@H]3C)cc(-c3ccnn3C)c12` [Example 24, (R)-4-(5-ethyl-4-(1-methyl-1H-pyrazol-5-yl)-7-(1H-pyrazol-5-yl)imidazo[1,5-b]pyridazin-2-yl)-3-methylmorpholine], for which the IC50 on ATR/ATRIP enzyme is 2 nM. Further, the IC50 in series [1] turned out to be 28 nM. Also, in series [2], the IC50 worked out at 38.8 nM. In series [3], this compound had an AUC(0-inf) of 171000 ng·h/mL, an AUC(0-t) of 162000 ng·h/mL, a Cmax of 15400 ng/mL and a half-life of 5.4 h.

Regarding `C=C(C)c1nc(-c2ccn[nH]2)n2nc(N3CCOC[C@H]3C)cc(-c3ccnn3C)c12` [Example 25, (R)-3-Methyl-4-(4-(1-Methyl-1H-pyrazol-5-yl)-5-(prop-1-en-2-yl)-7-(1H-pyrazol-5-yl)imidazo[1,5-b]pyridazin-2-yl)morpholine], the IC50 at ATR/ATRIP enzyme worked out at 1 nM. The IC50 in series [1] (MTT, 4 days) is 8.64 nM. Besides, the IC50 in series [2] (MTT, 4 days) worked out at 10.7 nM. Moreover, in series [3], the AUC(0-inf) is 70200 ng·h/mL, the AUC(0-t) came out at 70000 ng·h/mL, the peak concentration (Cmax) stood at 16900 ng/mL and the half-life was 2.56 h.

Turning to `CC(C)c1nc(-c2ccn[nH]2)n2nc(N3CCOC[C@H]3C)cc(-c3ccnn3C)c12` [Example 26, (R)-4-(5-isopropyl-4-(1-methyl-1H-pyrazol-5-yl)-7-(1H-pyrazol-5-yl)imidazo[1,5-b]pyridazin-2-yl)-3-methylmorpholine], the IC50 at ATR/ATRIP enzyme was 1 nM. Moreover, the IC50 in series [1] (MTT, 4 days) came out at 22.8 nM. The IC50 in series [2] (MTT, 4 days) was 27.4 nM. In series [3], this compound had an AUC(0-inf) of 49000 ng·h/mL, an AUC(0-t) of 46400 ng·h/mL, a Cmax of 7180 ng/mL and a half-life of 5.82 h.
